This note sets out measurements from ChEMBL document CHEMBL5338713, “Discovery of pomalidomide-based PROTACs for selective degradation of histone deacetylase 8” (Eur J Med Chem, 2022).

Structures are written as SMILES. The source made the active and inactive calls. The calls are words filed in the database; no cut-off is given here.

Holding throughout (assay type): cell-based
The target in assay [1] is T1, Protein cereblon/Histone deacetylase 8 (Homo sapiens) (UniProt Q9BY41+Q96SW2). The assay can be described thus: PROTAC activity at HDAC8/CRBN in human HCT-116 cells assessed as degradation of HDAC8 at 5 uM by Western blot analysis.
T1 sequence (Q96SW2 whole entry, looked up, one chain of several): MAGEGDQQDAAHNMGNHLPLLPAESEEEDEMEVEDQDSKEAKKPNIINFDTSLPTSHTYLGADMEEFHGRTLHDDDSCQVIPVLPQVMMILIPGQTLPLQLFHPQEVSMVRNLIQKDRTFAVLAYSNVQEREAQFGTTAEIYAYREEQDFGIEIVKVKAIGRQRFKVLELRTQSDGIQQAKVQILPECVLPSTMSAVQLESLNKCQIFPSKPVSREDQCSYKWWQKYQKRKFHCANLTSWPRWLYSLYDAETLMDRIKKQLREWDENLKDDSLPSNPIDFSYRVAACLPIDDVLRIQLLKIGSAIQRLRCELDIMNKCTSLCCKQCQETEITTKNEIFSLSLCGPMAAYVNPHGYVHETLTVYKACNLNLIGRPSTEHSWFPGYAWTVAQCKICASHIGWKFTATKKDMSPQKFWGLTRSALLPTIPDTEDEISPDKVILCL
For assay [2], the target named is T1, Protein cereblon/Histone deacetylase 8 (Homo sapiens). The assay can be described thus: PROTAC activity at HDAC8/CRBN in human HCT-116 cells assessed as degradation of HDAC8 at 5 uM measured after 10 hrs in presence of BRD73954 by Western blot analysis.
Assay [3] has as its target T2, Histone deacetylase 8 (Homo sapiens) (UniProt Q9BY41).
T2 sequence (whole entry): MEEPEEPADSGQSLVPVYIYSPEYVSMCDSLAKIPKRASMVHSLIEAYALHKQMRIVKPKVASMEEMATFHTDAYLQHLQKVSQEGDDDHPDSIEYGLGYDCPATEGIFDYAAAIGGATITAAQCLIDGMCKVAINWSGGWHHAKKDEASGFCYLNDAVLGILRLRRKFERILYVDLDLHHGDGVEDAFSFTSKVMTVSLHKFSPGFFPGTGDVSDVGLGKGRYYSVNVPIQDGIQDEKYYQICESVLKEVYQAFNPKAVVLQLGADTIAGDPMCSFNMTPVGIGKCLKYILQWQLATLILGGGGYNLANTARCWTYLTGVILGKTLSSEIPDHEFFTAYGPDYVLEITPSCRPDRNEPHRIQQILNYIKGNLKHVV
The assay can be described thus: Induction of HDAC8 degradation in human HCT-116 cells assessed as increase in SMC3 acetylation level measured after 10 hrs by Western blot analysis. The following applies: dose 0.1-160 µM. (In western blotting, separated proteins are transferred to a membrane and probed.)

The target in assay [4] is T1, Protein cereblon/Histone deacetylase 8 (Homo sapiens). The assay can be described thus: PROTAC activity at HDAC8/CRBN in human HCT-116 cells assessed as degradation of HDAC8 at 5 uM measured after 10 hrs in presence of E3 ligase inhibitor by Western blot analysis.
Assay [5] has the same target. The assay can be described thus: PROTAC activity at HDAC8/CRBN in human HCT-116 cells assessed as degradation of HDAC8 at 5 uM measured after 10 hrs in presence of MG132 by Western blot analysis.
Assay [6] shares this target. The assay can be described thus: PROTAC activity at HDAC8/CRBN in human HCT-116 cells assessed as degradation of HDAC8 at 5 uM measured after 10 hrs in presence of pomalidomide by Western blot analysis.
Assay [7] addresses Histone deacetylase 1 (Homo sapiens) (UniProt Q13547). The assay can be described thus: Induction of HDAC1 degradation in human HCT-116 cells at 0.1 to 160 uM measured after 10 hrs by Western blot analysis. The following applies: dose 0.1-160 µM.
Assay [8] concerns the target T2, Histone deacetylase 8 (Homo sapiens). The assay can be described thus: Induction of HDAC8 degradation in human HCT-116 cells assessed as maximum degradation at 0.1 to 160 uM measured after 10 hrs by Western blot analysis relative to control. Conditions: dose 0.1-160 µM.
The target is the same in assay [9]. The experiment in a line: Induction of HDAC8 degradation in human HCT-116 cells at 5 uM measured at 2 hrs by Western blot analysis.
The target is the same in assay [10]. The assay can be described thus: Induction of HDAC8 degradation in human HCT-116 cells assessed as hook effect measured at > 40 uM for 10 hrs by Western blot analysis.
The target of assay [11] is T3, Protein deacetylase HDAC6 (Homo sapiens, UniProt Q9UBN7).
T3 sequence (Q9UBN7 whole entry): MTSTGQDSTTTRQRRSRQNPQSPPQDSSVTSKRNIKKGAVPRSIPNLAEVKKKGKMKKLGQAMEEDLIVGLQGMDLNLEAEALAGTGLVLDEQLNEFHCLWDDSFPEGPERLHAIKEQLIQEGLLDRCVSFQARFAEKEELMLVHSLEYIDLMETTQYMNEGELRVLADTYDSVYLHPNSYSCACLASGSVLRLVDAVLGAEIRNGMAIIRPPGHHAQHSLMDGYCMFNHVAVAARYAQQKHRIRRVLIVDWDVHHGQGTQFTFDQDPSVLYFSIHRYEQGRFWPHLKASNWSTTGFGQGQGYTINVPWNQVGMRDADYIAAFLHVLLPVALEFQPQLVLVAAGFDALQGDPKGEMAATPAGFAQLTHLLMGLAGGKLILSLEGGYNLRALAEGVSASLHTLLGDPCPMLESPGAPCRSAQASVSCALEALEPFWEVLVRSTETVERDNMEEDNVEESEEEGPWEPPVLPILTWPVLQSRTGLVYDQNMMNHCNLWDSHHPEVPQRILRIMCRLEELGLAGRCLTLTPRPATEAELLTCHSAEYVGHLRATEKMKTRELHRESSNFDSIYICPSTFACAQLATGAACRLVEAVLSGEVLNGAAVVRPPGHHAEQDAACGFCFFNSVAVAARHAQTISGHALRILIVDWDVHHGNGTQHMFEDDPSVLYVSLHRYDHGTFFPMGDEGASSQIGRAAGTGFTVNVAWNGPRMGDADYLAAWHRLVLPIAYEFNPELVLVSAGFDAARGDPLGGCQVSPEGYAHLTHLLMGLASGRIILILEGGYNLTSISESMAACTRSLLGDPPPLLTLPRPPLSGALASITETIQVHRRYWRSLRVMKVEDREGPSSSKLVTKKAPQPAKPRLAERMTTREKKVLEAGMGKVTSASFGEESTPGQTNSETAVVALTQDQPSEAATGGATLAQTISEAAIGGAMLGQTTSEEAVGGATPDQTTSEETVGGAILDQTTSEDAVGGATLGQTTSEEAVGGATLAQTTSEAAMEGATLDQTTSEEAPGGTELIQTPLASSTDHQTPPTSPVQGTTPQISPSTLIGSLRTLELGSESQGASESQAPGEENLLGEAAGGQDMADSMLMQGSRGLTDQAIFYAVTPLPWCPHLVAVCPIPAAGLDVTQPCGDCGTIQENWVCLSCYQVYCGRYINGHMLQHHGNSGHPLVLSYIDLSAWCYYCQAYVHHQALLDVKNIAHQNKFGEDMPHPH
The experiment in a line: Induction of HDAC6 degradation in human HCT-116 cells measured after 10 hrs by Western blot analysis.

Assay [12] concerns the target T2, Histone deacetylase 8 (Homo sapiens). The assay can be described thus: Induction of HDAC8 degradation in human HCT-116 cells at 5 uM measured at 24 hrs by Western blot analysis.
Assay [13] has the same target. The experiment in a line: Induction of HDAC8 degradation in human HCT-116 cells at 5 uM by Western blot analysis relative to control.
For assay [14], the target named is Histone deacetylase 3 (Homo sapiens) (UniProt O15379). The experiment in a line: Induction of HDAC3 degradation in human HCT-116 cells at 0.1 to 160 uM measured after 10 hrs by Western blot analysis. The following applies: dose 0.1-160 µM.
Chain of Histone deacetylase 3 (Homo sapiens) (O15379 whole entry): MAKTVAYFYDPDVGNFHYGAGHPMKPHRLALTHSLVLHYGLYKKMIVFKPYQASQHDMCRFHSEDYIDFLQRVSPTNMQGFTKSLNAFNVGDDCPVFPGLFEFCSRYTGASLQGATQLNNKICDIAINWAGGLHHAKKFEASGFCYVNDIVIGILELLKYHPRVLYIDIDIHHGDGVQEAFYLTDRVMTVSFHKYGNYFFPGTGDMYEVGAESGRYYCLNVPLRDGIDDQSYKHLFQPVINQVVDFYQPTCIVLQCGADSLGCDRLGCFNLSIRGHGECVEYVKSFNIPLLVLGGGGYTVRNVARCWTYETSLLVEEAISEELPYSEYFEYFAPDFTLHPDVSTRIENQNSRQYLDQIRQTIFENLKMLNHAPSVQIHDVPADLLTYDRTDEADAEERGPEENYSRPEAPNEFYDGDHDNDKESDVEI
The target of assay [15] is T2, Histone deacetylase 8 (Homo sapiens). The assay can be described thus: Induction of HDAC8 degradation in human HCT-116 cells assessed as maximum degradation at 5 uM measured at 10 hrs by Western blot analysis.
In assay [16] the target is T1, Protein cereblon/Histone deacetylase 8 (Homo sapiens). The experiment in a line: PROTAC activity at HDAC8/CRBN in human HCT-116 cells assessed as degradation of HDAC8 at 5 uM measured after 10 hrs in presence of bafilomycin Al by Western blot analysis.
The target of assay [17] is T4, Protein deacetylase HDAC6 (Homo sapiens) (UniProt Q9UBN7).
T4 sequence (whole entry): T3 sequence (Q9UBN7 whole entry)
The assay can be described thus: Induction of HDAC6 degradation in human HCT-116 cells assessed as increase in alpha-tubulin acetylation level measured after 10 hrs by Western blot analysis. The following applies: dose 0.1-160 µM.

The target of assay [18] is T5, Histone deacetylase 8 (Homo sapiens, UniProt Q9BY41).
T5 sequence (Q9BY41 whole entry): T2 sequence (whole entry)
The assay can be described thus: Induction of HDAC8 degradation in human HCT-116 cells measured after 10 hrs by Western blot analysis.

Chain of Histone deacetylase 1 (Homo sapiens) (Q13547 whole entry): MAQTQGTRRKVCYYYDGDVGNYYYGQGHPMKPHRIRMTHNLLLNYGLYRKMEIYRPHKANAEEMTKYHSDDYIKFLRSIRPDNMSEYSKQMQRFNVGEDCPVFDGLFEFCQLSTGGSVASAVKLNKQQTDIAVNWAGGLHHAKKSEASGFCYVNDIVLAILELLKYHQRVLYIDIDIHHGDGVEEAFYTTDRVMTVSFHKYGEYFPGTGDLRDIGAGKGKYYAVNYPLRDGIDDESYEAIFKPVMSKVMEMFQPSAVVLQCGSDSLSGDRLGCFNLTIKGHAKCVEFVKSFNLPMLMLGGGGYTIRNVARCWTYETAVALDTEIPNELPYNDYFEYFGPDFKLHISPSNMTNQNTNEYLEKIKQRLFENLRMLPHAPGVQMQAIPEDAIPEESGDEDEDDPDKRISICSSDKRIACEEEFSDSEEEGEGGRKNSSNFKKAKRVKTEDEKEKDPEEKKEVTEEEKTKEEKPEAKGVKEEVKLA

On to `O=C(CCCCOc1ccc(CCNC(=O)c2cccc(C(=O)NOC3CCCCO3)c2)cc1)NCCCCCCNc1cccc2c1C(=O)N(C1CCC(=O)NC1=O)C2=O` (stereo not given), for which, in assay [1], the result was inactive.

As usually defined, the Emax is the size of the effect at its maximum, as opposed to the concentration needed. Usually DC50 stands for the concentration giving 50% degradation. Turning to `O=C(CCCCOc1ccc(CCNC(=O)c2cccc(C(=O)NO)c2)cc1)NCCCCCCNc1cccc2c1C(=O)N(C1CCC(=O)NC1=O)C2=O` (stereo not given), the result in [2], in [4], in [5], in assay [6], in assay [7] and in [14] was inactive. Besides, the Activity entry in assay [3] was “Dose-Dependent Effect”; in assay [13], 85%; in assay [17], “Dose-Dependent Effect”. Moreover, the Emax in [8] was determined as 93%. The result in assay [9], in [10], in assay [12], in assay [15] and in [16] was Active. Further, in assay [11], the DC50 came to 4950 nM.

For the compound `O=C1CCC(N2C(=O)c3cccc(N4CCC(N5CCN(C(=O)CCCCOc6ccc(CCNC(=O)c7cccc(C(=O)NO)c7)cc6)CC5)CC4)c3C2=O)C(=O)N1` (stereo not given), half-maximal degradation in assay [18] (DC50) was put at 876 nM. In assay [8], the maximal response (Emax) came out at 91%. Moreover, the Activity in [13] was determined as 74.4%.

Regarding `O=C(CCCCOc1ccc(CCNC(=O)c2cccc(C(=O)NO)c2)cc1)NCCCCCCNc1ccc2c(c1)C(=O)N(C1CCC(=O)NC1=O)C2=O` (stereo not given), the DC50 in assay [18] worked out at 441 nM. In addition, the Emax in assay [8] was 77%. The Activity in [13] came to 68.9%.

Consider `O=C1CCC(N2C(=O)c3cccc(N4CC(N5CCN(C(=O)CCCCOc6ccc(CCNC(=O)c7cccc(C(=O)NO)c7)cc6)CC5)C4)c3C2=O)C(=O)N1` (stereo not given), for which, in [13], the Activity was 59.6%.

Consider `O=C(COc1ccc(CCNC(=O)c2cccc(C(=O)NO)c2)cc1)NCCCNc1cccc2c1C(=O)N(C1CCC(=O)NC1=O)C2=O` (stereo not given), for which the Activity in assay [13] is 32%.

Regarding `O=C1CCC(N2C(=O)c3cccc(N4CCN(CC5CCN(C(=O)CCCCOc6ccc(CCNC(=O)c7cccc(C(=O)NO)c7)cc6)CC5)CC4)c3C2=O)C(=O)N1` (stereo not given), the Activity in [13] worked out at 43.6%.

Turning to `CN1C(=O)CCC(N2C(=O)c3cccc(NCCCCCCNC(=O)CCCCOc4ccc(CCNC(=O)c5cccc(C(=O)NO)c5)cc4)c3C2=O)C1=O` (stereo not given), the outcome in assay [1] was inactive.

For the compound `O=C(CCCOc1ccc(CCNC(=O)c2cccc(C(=O)NO)c2)cc1)NCCCCCNc1cccc2c1C(=O)N(C1CCC(=O)NC1=O)C2=O` (stereo not given), the Activity in [13] is 33.4%.

Regarding `O=C(CCCCOc1ccc(CCNC(=O)c2cccc(C(=O)NO)c2)cc1)NCCCCCNc1cccc2c1C(=O)N(C1CCC(=O)NC1=O)C2=O` (stereo not given), in [13], the Activity worked out at 72.9%.

`O=C(CCCCOc1ccc(CCNC(=O)c2cccc(C(=O)NO)c2)cc1)NCCCCNc1cccc2c1C(=O)N(C1CCC(=O)NC1=O)C2=O` (stereo not given): in assay [13], the Activity came out at 53%.

In the case of `O=C(CCCCCOc1ccc(CCNC(=O)c2cccc(C(=O)NO)c2)cc1)NCCCNc1cccc2c1C(=O)N(C1CCC(=O)NC1=O)C2=O` (stereo not given), in assay [13], the Activity worked out at 16.9%.

On to `O=C(NO)c1cccc(C(=O)NCCc2ccccc2)c1`, for which the Activity in assay [13] was -22%.

Take `Nc1cccc2c1C(=O)N(C1CCC(=O)NC1=O)C2=O` (stereo not given): the Activity in [13] is -11%.

For `O=C(CCCCOc1ccc(CCNC(=O)c2cccc(C(=O)NO)c2)cc1)NCCNc1cccc2c1C(=O)N(C1CCC(=O)NC1=O)C2=O` (stereo not given), the Activity in assay [13] worked out at 52.5%.

Consider `O=C(CCCCCCOc1ccc(CCNC(=O)c2cccc(C(=O)NO)c2)cc1)NCCNc1cccc2c1C(=O)N(C1CCC(=O)NC1=O)C2=O` (stereo not given), for which the Activity in assay [13] was determined as 65.2%.
